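Each compound was tested at five concentrations against cells in 96-well plates for 48 hours. At the TGI there is no net growth.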
Experiments:
Assay in all cases: growth of human tumour cells (NCI), 48 h
MDA-MB-435 = system: MDA-MB-435
OVCAR-8 ovarian = system: OVCAR-8 ovarian
HS 578T breast = system: HS 578T breast
RXF 393 renal = system: RXF 393 renal
UACC-62 melanoma = system: UACC-62 melanoma
MDA-N = system: MDA-N
K-562 leukemia = system: K-562 leukemia
DU-145 prostate = system: DU-145 prostate
RPMI-8226 leukemia = system: RPMI-8226 leukemia
KM12 colon = system: KM12 colon

Measured: TGI

Cc1ccc(S(=O)(=O)NN=C2CCCCCCCCCCC2)cc1
> 100 µM: all assays above

COc1ccc(-c2csc(=Nc3ccccc3)n2CC(O)c2ccc([N+](=O)[O-])cc2)cc1 (stereo not given)
> 100 µM: all assays above

O=C(O)C1CCCN1Cc1cc2ccccc2c2ccccc12 (stereo not given)
> 100 µM: all assays above

COc1ccc(N=C(C)c2ccncc2)cc1
> 100 µM: all assays above
